Measured values from patent publication US9474790B2, “Stable, protracted GLP-1/glucagon receptor co-agonists for medical use” (Novo Nordisk A/S, priority 2013, dated 2016).
Numbered stars: 1 amine (or outer) side, 2 acyl side, 3 side chain; on linkers, the order of the positions; unused ones are H or OH. Square brackets hold non-standard residues; d marks the D form. Side chains are listed from the residue outwards. Peptide text beside a SMILES is read from it. * marks the point of attachment. C18 diacid = O=C(O)CCCCCCCCCCCCCCCCC(=O)*; γGlu = O=C(O)[C@H](CCC(=O)[*:2])N[*:1]; AEEA = NCCOCCOCC(=O)O; Aib = CC(C)(N)C(=O)O

Experiments:
[1] = Thioflavin T (ThT) fibrillation assay for physical stability; format: physicochemical; conditions: 250 μM in 10 mM HEPES buffer, pH 7.5, 37° C., shaking 960 rpm
Summary of the method: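 Peptide at 250 μM in 10 mM HEPES pH 7.5 with 1 μM ThT, at 37° C with 960 rpm orbital shaking. Fluorescence (ex 444/em 485 nm) read every 20 min after 10 min pre-incubation; sigmoidal fit gives lag time (t0−2τ) and kapp (1/τ). Recovery is RP-HPLC peptide in the centrifuged, 0.22 μm-filtered supernatant as % of initial.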

human GLP-1 receptor = target: T1, human GLP-1 receptor (Homo sapiens, UniProt P43220); assay: GLP-1 receptor potency, CRE luciferase reporter gene assay in BHK cells; format: cell-based; conditions: BHK cells expressing human GLP-1 receptor, read-out: EC50 GLP-1R
T1 construct: expressed in transfected cells; host or cells: BHK cells (parent BHKTS13), clone FCW467-12A/KZ10-1, with CRE luciferase
T1 sequence (P43220 24-463): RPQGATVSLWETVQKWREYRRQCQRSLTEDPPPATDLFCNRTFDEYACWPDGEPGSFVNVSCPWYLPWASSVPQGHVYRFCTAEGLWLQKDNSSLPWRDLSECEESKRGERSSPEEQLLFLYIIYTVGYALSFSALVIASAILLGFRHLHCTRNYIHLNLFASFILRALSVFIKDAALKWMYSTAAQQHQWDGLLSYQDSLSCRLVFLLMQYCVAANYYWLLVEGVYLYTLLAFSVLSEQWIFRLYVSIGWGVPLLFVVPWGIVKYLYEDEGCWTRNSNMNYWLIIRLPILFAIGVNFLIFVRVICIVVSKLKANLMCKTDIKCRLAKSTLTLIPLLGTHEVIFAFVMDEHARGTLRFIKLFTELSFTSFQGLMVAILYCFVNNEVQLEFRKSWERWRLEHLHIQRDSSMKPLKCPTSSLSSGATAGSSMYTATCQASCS
Summary of the method: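 BHK cells stably expressing human GLP-1 receptor with CRE-luciferase reporter, 5×10EE3 cells/well in phenol red-free DMEM with 10 mM Hepes, 2% ovalbumin, 0.2% Pluronic F-68. Compounds at final 1×10EE-6 to 1×10EE-13 M, 3 h at 37° C; steadylite luminescence; EC50 by four-parameter fit, in pM.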

THT assay Lag time (Ex. 76) [1] [h] | EC50 (human GLP-1 receptor) [pM] | SMILES
45 | – | CC(C)C[C@H](NC(=O)[C@H](CC(=O)O)NC(=O)[C@H](CC(C)C)NC(=O)[C@H](Cc1ccc(O)cc1)NC(=O)[C@H](CCCCN)NC(=O)[C@H](CO)NC(=O)[C@H](CC(C)C)NC(=O)[C@H](CC(=O)O)NC(=O)[C@H](CO)NC(=O)[C@@H](NC(=O)[C@H](Cc1ccccc1)NC(=O)[C@@H](NC(=O)CNC(=O)[C@H](CCC(N)=O)NC(=O)C(C)(C)NC(=O)[C@@H](N)Cc1c[nH]cn1)[C@@H](C)O)[C@@H](C)O)C(=O)N[C@@H](CCCNC(=N)N)C(=O)N[C@@H](CCCNC(=N)N)C(=O)N[C@@H](C)C(=O)N[C@@H](CCCNC(=N)N)C(=O)N[C@@H](CC(=O)O)C(=O)N[C@@H](Cc1ccccc1)C(=O)N[C@H](C(=O)N[C@@H](CCC(N)=O)C(=O)N[C@@H](Cc1c[nH]c2ccccc12)C(=O)N[C@@H](CC(C)C)C(=O)N[C@@H](CC(C)C)C(=O)N[C@@H](CCCCNC(=O)CNC(=O)[C@H](CO)NC(=O)[C@H](CCC(=O)O)NC(=O)[C@H](CO)NC(=O)CC[C@H](NC(=O)CC[C@H](NC(=O)CCCCCCCCCCCCCCCCC(=O)O)C(=O)O)C(=O)O)C(=O)N[C@H](C(N)=O)[C@@H](C)O)C(C)C [Example 55, N^ε28-[2-[[(2S)-2-[[(2S)-4-carboxy-2-[[(2S)-2-[[(4S)-4-carboxy-4-[[(4S)-4-carboxy-4-(17-carboxyheptadecanoylamino)butanoyl]amino]butanoyl]amino]-3-hydroxypropanoyl]amino]butanoyl]amino]-3-hydroxypropanoyl]amino]acetyl]-[Aib2,Leu10,Leu16,Arg20,Leu27,Lys28]-Glucagon amide] (H-H[Aib]QGTFTSDLSKYLDLRRARDFVQWLLK([Gly-Ser-Glu-Ser-γGlu-γGlu-C18 diacid])T-NH2; N-terminus assumed)
– | 8 | CC(C)C[C@H](NC(=O)[C@H](Cc1ccc(O)cc1)NC(=O)[C@H](CCCNC(=N)N)NC(=O)[C@H](CO)NC(=O)[C@H](CC(C)C)NC(=O)[C@H](CC(=O)O)NC(=O)[C@H](CO)NC(=O)[C@@H](NC(=O)[C@H](Cc1ccccc1)NC(=O)[C@@H](NC(=O)CNC(=O)[C@H](CCC(N)=O)NC(=O)C(C)(C)NC(=O)[C@@H](N)Cc1c[nH]cn1)[C@@H](C)O)[C@@H](C)O)C(=O)N[C@@H](CC(=O)O)C(=O)N[C@@H](C)C(=O)N[C@@H](CCCNC(=N)N)C(=O)N[C@@H](CCCNC(=N)N)C(=O)N[C@@H](C)C(=O)N[C@@H](CCCNC(=N)N)C(=O)N[C@@H](CC(=O)O)C(=O)N[C@@H](Cc1ccccc1)C(=O)N[C@H](C(=O)N[C@@H](CCC(N)=O)C(=O)N[C@@H](Cc1c[nH]c2ccccc12)C(=O)N[C@@H](CC(C)C)C(=O)N[C@@H](CC(C)C)C(=O)N[C@@H](CCCCNC(=O)CC[C@H](NC(=O)CC[C@H](NC(=O)CC[C@H](NC(=O)CCCCCCCCCCCCCCCCC(=O)O)C(=O)O)C(=O)O)C(=O)O)C(=O)N[C@H](C(N)=O)[C@@H](C)O)C(C)C [Example 62, N^ε28-[(4S)-4-carboxy-4-[[(4S)-4-carboxy-4-[[(4S)-4-carboxy-4-(17-carboxyheptadecanoylamino)butanoyl]amino]butanoyl]amino]butanoyl]-[Aib2,Leu10,Arg12,Ala16,Arg20,Leu27,Lys28]-Glucagon amide] (H-H[Aib]QGTFTSDLSRYLDARRARDFVQWLLK([γGlu-γGlu-γGlu-C18 diacid])T-NH2; N-terminus assumed)

Continued, compound first:

SMILES | THT assay Lag time (Ex. 76) [1] [h] | EC50 (human GLP-1 receptor) [pM]
CC(C)C[C@H](NC(=O)[C@H](CC(C)C)NC(=O)[C@H](Cc1c[nH]c2ccccc12)NC(=O)[C@H](CCC(N)=O)NC(=O)[C@@H](NC(=O)[C@H](Cc1ccccc1)NC(=O)[C@H](CCC(=O)O)NC(=O)[C@H](CCCNC(=N)N)NC(=O)[C@H](C)NC(=O)[C@H](CCCNC(=N)N)NC(=O)[C@H](CCCNC(=N)N)NC(=O)[C@H](CO)NC(=O)[C@H](CC(=O)O)NC(=O)[C@H](CC(C)C)NC(=O)[C@H](Cc1ccc(O)cc1)NC(=O)[C@H](CCCCN)NC(=O)[C@H](CO)NC(=O)[C@H](CC(C)C)NC(=O)[C@H](CC(=O)O)NC(=O)[C@H](CO)NC(=O)[C@@H](NC(=O)[C@H](Cc1ccccc1)NC(=O)[C@@H](NC(=O)CNC(=O)[C@H](CCC(N)=O)NC(=O)C(C)(C)NC(=O)[C@@H](N)Cc1c[nH]cn1)[C@@H](C)O)[C@@H](C)O)C(C)C)C(=O)N[C@@H](CC(N)=O)C(=O)N[C@@H](CCCCNC(=O)CC[C@H](NC(=O)CC[C@H](NC(=O)COCCOCCNC(=O)COCCOCCNC(=O)CC[C@H](NC(=O)CCCCCCCCCCCCCCCCC(=O)O)C(=O)O)C(=O)O)C(=O)O)C(N)=O [Example 12, N^ε29-[(4S)-4-carboxy-4-[[(4S)-4-carboxy-4-[[2-[2-[2-[[2-[2-[2-[[(4S)-4-carboxy-4-(17-carboxyheptadecanoylamino)butanoyl]amino]ethoxy]ethoxy]acetyl]amino]ethoxy]ethoxy]acetyl]amino]butanoyl]amino]butanoyl]-[Aib2,Leu10,Arg20,Glu21,Leu27,Lys29]-Glucagon amide] (H-H[Aib]QGTFTSDLSKYLDSRRAREFVQWLLNK([γGlu-γGlu-AEEA-AEEA-γGlu-C18 diacid])-NH2) | 45 | 14.7
CC(C)C[C@H](NC(=O)[C@H](CC(C)C)NC(=O)[C@H](Cc1c[nH]c2ccccc12)NC(=O)[C@H](CCC(N)=O)NC(=O)[C@@H](NC(=O)[C@H](Cc1ccccc1)NC(=O)[C@H](CCC(=O)O)NC(=O)[C@H](CCCNC(=N)N)NC(=O)[C@H](C)NC(=O)[C@H](CCCNC(=N)N)NC(=O)[C@H](CCCNC(=N)N)NC(=O)[C@H](CO)NC(=O)[C@H](CCC(=O)O)NC(=O)[C@H](CC(C)C)NC(=O)[C@H](Cc1ccc(O)cc1)NC(=O)[C@H](CCCCN)NC(=O)[C@H](CO)NC(=O)[C@H](CC(C)C)NC(=O)[C@H](CC(=O)O)NC(=O)[C@H](CO)NC(=O)[C@@H](NC(=O)[C@H](Cc1ccccc1)NC(=O)[C@@H](NC(=O)CNC(=O)[C@H](CCC(N)=O)NC(=O)C(C)(C)NC(=O)[C@@H](N)Cc1c[nH]cn1)[C@@H](C)O)[C@@H](C)O)C(C)C)C(=O)N[C@@H](CC(N)=O)C(=O)N[C@@H](CCCCNC(=O)CC[C@H](NC(=O)COCCOCCNC(=O)COCCOCCNC(=O)CC[C@H](NC(=O)CC[C@H](NC(=O)CCCCCCCCCCCCCCCCC(=O)O)C(=O)O)C(=O)O)C(=O)O)C(N)=O [Example 21, N^ε29-[(4S)-4-carboxy-4-[[2-[2-[2-[[2-[2-[2-[[(4S)-4-carboxy-4-[[(4S)-4-carboxy-4-(17-carboxyheptadecanoylamino)butanoyl]amino]butanoyl]amino]ethoxy]ethoxy]acetyl]amino]ethoxy]ethoxy]acetyl]amino]butanoyl]-[Aib2,Leu10,Glu15,Arg20,Glu21,Leu27,Lys29]-Glucagon amide] (H-H[Aib]QGTFTSDLSKYLESRRAREFVQWLLNK([γGlu-AEEA-AEEA-γGlu-γGlu-C18 diacid])-NH2; N-terminus assumed) | 18 | 2.7
CC(C)C[C@H](NC(=O)[C@H](Cc1ccc(O)cc1)NC(=O)[C@H](CCCCN)NC(=O)[C@H](CO)NC(=O)[C@H](CC(C)C)NC(=O)[C@H](CC(=O)O)NC(=O)[C@H](CO)NC(=O)[C@@H](NC(=O)[C@H](Cc1ccccc1)NC(=O)[C@@H](NC(=O)CNC(=O)[C@H](CCC(N)=O)NC(=O)C(C)(C)NC(=O)[C@@H](N)Cc1c[nH]cn1)[C@@H](C)O)[C@@H](C)O)C(=O)N[C@@H](CC(=O)O)C(=O)N[C@@H](CO)C(=O)N[C@@H](CCCNC(=N)N)C(=O)N[C@@H](CCCNC(=N)N)C(=O)N[C@@H](C)C(=O)N[C@@H](CCCNC(=N)N)C(=O)N[C@@H](CCC(=O)O)C(=O)N[C@@H](Cc1ccccc1)C(=O)N[C@H](C(=O)N[C@@H](CCC(N)=O)C(=O)N[C@@H](Cc1c[nH]c2ccccc12)C(=O)N[C@@H](CC(C)C)C(=O)N[C@@H](CC(C)C)C(=O)N[C@@H](CCCCNC(=O)CC[C@H](NC(=O)CC[C@H](NC(=O)COCCOCCNC(=O)COCCOCCNC(=O)CC[C@H](NC(=O)CCCCCCCCCCCCCCCCC(=O)O)C(=O)O)C(=O)O)C(=O)O)C(=O)N[C@H](C(N)=O)[C@@H](C)O)C(C)C [Example 56, N^ε28-[(4S)-4-carboxy-4-[[(4S)-4-carboxy-4-[[2-[2-[2-[[2-[2-[2-[[(4S)-4-carboxy-4-(17-carboxyheptadecanoylamino)butanoyl]amino]ethoxy]ethoxy]acetyl]amino]ethoxy]ethoxy]acetyl]amino]butanoyl]amino]butanoyl]-[Aib2,Leu10,Arg20,Glu21,Leu27,Lys28]-Glucagon amide] (H-H[Aib]QGTFTSDLSKYLDSRRAREFVQWLLK([γGlu-γGlu-AEEA-AEEA-γGlu-C18 diacid])T-NH2) | 45 | –
